Holding throughout (assay): growth of human tumour cells (NCI), 48 h
The subject of experiment [1] is OVCAR-3.
Experiment [2] relates to LOX IMVI.
Experiment [3] deals with RPMI-8226.
Experiment [4] relates to K562.
The test system of experiment [5] is SK-OV-3.
Experiment [6] concerns TK-10.
Experiment [7] concerns SK-MEL-2.
The test system of experiment [8] is SK-MEL-5.
The subject of experiment [9] is COLO 205.
Experiment [10] deals with KM12.
Experiment [11] has as its system A498.
For experiment [12], the system named is MOLT-4.
In experiment [13] the test system is CCRF-CEM.
The test system of experiment [14] is UACC-257.
In experiment [15] the test system is Hs-578T.
Experiment [16] concerns DU-145.
Experiment [17] relates to MDA-MB-435.
Experiment [18] relates to PC-3.
The test system of experiment [19] is NCI/ADR-RES.

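These data come from cells grown in 96-well plates and exposed to compound for 48 hours at five concentrations. Here, GI50 denotes the concentration required for 50% inhibition of growth.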 Calls of active or inactive are those of the source. Rule as the data show it: active = GI50 up to about 1.1 µM and inactive = higher.

Regarding `CC(/C=C/C(=O)c1sc(-n2nc(-c3ccccc3)cc2-c2ccccc2)nc1C)=C\c1ccccc1`, the GI50 in experiment [1] was 26.7 µM (inactive); in experiment [2], 71.9 µM (inactive); in [3], 19.3 µM (inactive); in [4], 19.9 µM (inactive); in experiment [5], 38.4 µM (inactive); in experiment [6], > 10 µM (inactive). Besides, the GI50 in experiment [7] was 34.3 µM (inactive); in experiment [8] it was 15.5 µM (inactive); in experiment [9], > 10 µM (inactive); in experiment [10], 23.8 µM (inactive); in [11] it was > 10 µM (inactive); in experiment [12] it was 9.06 µM (inactive). Moreover, the results for the GI50 in experiment [13] and in experiment [14] were 27.7 µM (inactive) and 47.1 µM (inactive), respectively.
As for `O=C(O)CCCNS(=O)(=O)c1ccc2ccccc2c1`, the GI50 in experiment [1], in [2], in experiment [3], in experiment [4], in experiment [5] and in [6] was > 100 µM (inactive) throughout. In addition, the GI50 in experiment [7], in [8], in experiment [9], in experiment [10], in experiment [11] and in experiment [12] was > 100 µM (inactive) each time. Moreover, the GI50 in experiment [13] and in experiment [14] was > 100 µM (inactive) each time.
As to `CC(C)N(C(=O)C12C3C4C5(C#N)C3C1(C#N)C5C42I)C(C)C` (centres undefined), the GI50 in experiment [1] is > 100 µM (inactive); in experiment [2], > 49.5 µM (inactive); in experiment [3] it was > 46.1 µM (inactive); in experiment [4], > 42.2 µM (inactive); in experiment [5], > 100 µM (inactive); in [6] it was > 100 µM (inactive). The GI50 in experiment [7] is > 100 µM (inactive); in [8] it was > 100 µM (inactive); in experiment [9] it was > 45.4 µM (inactive); in [10] it was > 100 µM (inactive); in experiment [11], > 100 µM (inactive); in experiment [12], 40.8 µM (inactive). Further, the figures for the GI50 in experiment [13] and in experiment [14] were > 39.9 µM (inactive) and > 100 µM (inactive), respectively.
Consider `O=C(c1cc2c(C(F)(F)F)onc2c2ccccc12)C(F)(F)F`, for which the GI50 was 2.22 µM (inactive) in experiment [1]; 1.63 µM (inactive) in experiment [2]; 0.935 µM (active) in experiment [3]; 0.855 µM (active) in [4]; 12.3 µM (inactive) in experiment [5]; 7.4 µM (inactive) in experiment [6]. The GI50 in [7] is 3.4 µM (inactive); in experiment [8], 4.16 µM (inactive); in [9], 3.08 µM (inactive); in experiment [10], 0.746 µM (active); in experiment [11] it was 12.7 µM (inactive); in experiment [12], 1.15 µM (inactive). The GI50 in experiment [13] is 0.34 µM (active); in experiment [14] it was 5.61 µM (inactive).
Consider `[N-]=[N+]=NI1OC(=O)c2ccccc21`, for which the GI50 in experiment [1] was > 100 µM (inactive); in [2] it was 90.2 µM (inactive); in experiment [15], > 100 µM (inactive); in experiment [16], > 100 µM (inactive); in [3], 24 µM (inactive); in [4], 36.6 µM (inactive). Further, the GI50 in experiment [17] was 67.3 µM (inactive); in experiment [5], > 100 µM (inactive); in experiment [6] it was > 100 µM (inactive); in experiment [7], > 100 µM (inactive); in [9], 48.5 µM (inactive); in [10] it was > 100 µM (inactive). For the same molecule, the GI50 was > 100 µM (inactive) in experiment [11]; 66.8 µM (inactive) in [12]; 37.9 µM (inactive) in [13]; > 100 µM (inactive) in experiment [18]; > 100 µM (inactive) in [14]; > 100 µM (inactive) in experiment [19].
With `CN(CCO)/N=N/c1n[nH]cc1C(N)=O`, the GI50 in [1], in [2], in experiment [3], in experiment [4], in [5] and in [7] was > 100 µM (inactive) in each case. For the same molecule, the GI50 in experiment [8], in experiment [9], in experiment [10], in experiment [11], in [12] and in experiment [13] was > 100 µM (inactive) in each case. Moreover, the GI50 in experiment [14] and in experiment [19] was > 100 µM (inactive) throughout.
As for `OCC#CCNCl`, the GI50 in [1], in experiment [2], in experiment [3], in experiment [4], in experiment [5] and in [7] was > 100 µM (inactive) throughout. Further, the GI50 in experiment [8], in [9], in experiment [10], in experiment [11], in experiment [12] and in [13] was > 100 µM (inactive) each time. For the same molecule, the GI50 is > 73.6 µM (inactive) in experiment [14] and > 100 µM (inactive) in experiment [19].
For `O=C1C2CN(Cc3ccccc3)CC1CN(CC1CC1)C2`, the GI50 in [1], in experiment [2], in experiment [3], in experiment [4], in experiment [5] and in experiment [6] was > 100 µM (inactive) throughout. Besides, the GI50 in [7], in [8], in experiment [9], in experiment [10], in [11] and in experiment [12] was > 100 µM (inactive) throughout. The GI50 in [13] and in experiment [14] was > 100 µM (inactive) in each case.
For `c1cc(-c2cn3c(n2)SCC3)ccn1`, the GI50 is > 100 µM (inactive) in experiment [1]; > 59.2 µM (inactive) in [2]; > 65.5 µM (inactive) in experiment [3]; > 31.6 µM (inactive) in experiment [4]; > 100 µM (inactive) in [5]; > 100 µM (inactive) in experiment [6]. Besides, the GI50 in experiment [7] is > 100 µM (inactive); in [8] it was > 100 µM (inactive); in experiment [9], > 57.8 µM (inactive); in experiment [10] it was > 100 µM (inactive); in [11], > 100 µM (inactive); in [12] it was > 100 µM (inactive). For the same molecule, the values for the GI50 in [13] and in [14] were > 61.4 µM (inactive) and > 100 µM (inactive), respectively.
Take `CCCCCCCCC#CCCCCCCC(F)C(=O)O` (centres undefined): the GI50 was > 100 µM (inactive) in experiment [1]; > 100 µM (inactive) in experiment [2]; > 100 µM (inactive) in experiment [15]; > 100 µM (inactive) in experiment [16]; 29.8 µM (inactive) in [3]; 40 µM (inactive) in experiment [4]. Moreover, the GI50 in experiment [17], in experiment [5], in experiment [6], in [7], in [8] and in experiment [9] was > 100 µM (inactive) each time. The GI50 in experiment [10], in experiment [11], in experiment [12], in experiment [13], in [18] and in experiment [14] was > 100 µM (inactive) throughout. In experiment [19], the GI50 is > 100 µM (inactive).

The values are drawn from ChEMBL document CHEMBL1201862, “PubChem BioAssay data set” (2004).
